Here are results for six molecules from ChEMBL document CHEMBL5214886, “An appraisal of anti-mycobacterial activity with structure-activity relationship of piperazine and its analogues: A review” (Eur J Med Chem, 2021).

≈ marks a conversion by molar mass, not a printed value.

Usually MIC stands for the least concentration at which growth counts as inhibited.

What all share (format): functional
Assay [1] relates to Mycobacterium tuberculosis. Put plainly: Antimycobacterial activity against multi drug resistant Mycobacterium tuberculosis 16833 assessed as reduction in bacterial growth by MABA analysis.
The test system of assay [2] is Mycobacterium tuberculosis. Description: Antimycobacterial activity against multi drug resistant Mycobacterium tuberculosis 16995 assessed as reduction in bacterial growth by MABA analysis. Background: Alamar Blue is a resazurin reagent that responds to reducing activity.
Assay [3] has as its system Mycobacterium tuberculosis. Put plainly: Antimycobacterial activity against multi drug resistant Mycobacterium tuberculosis assessed as reduction in bacterial growth by two-fold agar dilution method.

With `O=C(NCc1ccc(N2CCN(c3ccc(F)cc3F)CC2)cc1)c1ccc([N+](=O)[O-])o1`, the results for the minimum inhibitory concentration (MIC) in assay [1] and in assay [2] were 4.16 µM (≈ 1.84 µg/mL) and 3.19 µM (≈ 1.41 µg/mL), respectively.

`O=C(/C=C(\O)c1cc(Cc2c(F)cc(F)cc2F)cn(Cc2ccccc2F)c1=O)C(=O)N1CCN(c2cccc3ccccc23)CC1`: the minimum inhibitory concentration (MIC) in assay [3] is not above 1.5 µM. As for `COc1ccc(N2CCN(c3ccc(CNC(=O)c4ccc([N+](=O)[O-])o4)cc3)CC2)cc1`, the MIC in assay [1] and in assay [2] was 9.16 µM (≈ 4 µg/mL) throughout. For `O=C(NCc1ccc(N2CCN(c3ccc(F)cc3)CC2)cc1)c1ccc([N+](=O)[O-])o1`, the figures for the MIC in assay [1] and in assay [2] were 7.61 µM (≈ 3.23 µg/mL) and 4.22 µM (≈ 1.79 µg/mL), respectively. The like results for `NNC(=O)c1ccncc1` [ISONIAZID] were, in that order, 0.06 µM (≈ 0.00823 µg/mL) and 0.06 µM (≈ 0.00823 µg/mL). The like results for `CO[C@H]1/C=C/O[C@@]2(C)Oc3c(C)c(O)c4c(O)c(c(/C=N/N5CCN(C)CC5)c(O)c4c3C2=O)NC(=O)/C(C)=C\C=C\[C@H](C)[C@H](O)[C@@H](C)[C@@H](O)[C@@H](C)[C@H](OC(C)=O)[C@@H]1C` [RIFAMPIN] were, in that order, more than 48.6 µM and more than 48.6 µM.
